For 73 molecules, CC50 results are on record in paper PMC6792352, “Limited Chemical Structural Diversity Found to Modulate Thyroid Hormone Receptor in the Tox21 Chemical Library” (Environmental Health Perspectives, 2019).

A short description of this data set: in vitro. To be noted: rat, gh3-tre-luc cells.

Counter-ions that a name gives are not always drawn.

What is called CC50 is the concentration at which the toxic effect on the cells reaches its halfway point. A high value points to lower toxicity to the cells. For `O=C/C(Cl)=C(/Cl)C(=O)O` [Mucochloric acid], the CC50 at 24 h (AC50 (uM) modified / 1000, Tox21_110001=Tox21_201305, viability, 1 nM T3 present, 24 h) was 74 µM and it took 63.6 µM to reach half-maximal cytotoxicity (AC50 (uM) modified / 1000, Tox21_110001=Tox21_302857, viability, 1 nM T3 present, 24 h) (CC50 at 24 h). In turn, `C[C@H]1[C@H](NC(=O)/C(=N\OC(C)(C)C(=O)O)c2csc(N)n2)C(=O)N1S(=O)(=O)O` [Aztreonam] yielded a CC50 at 24 h (AC50 (uM) modified / 1000) greater than 20 µM.

As for `CC[N+](CC)(CCNC(=O)C(=O)NCC[N+](CC)(CC)Cc1ccccc1Cl)Cc1ccccc1Cl` [Ambenonium chloride], the CC50 at 24 h (AC50 (uM) modified / 1000) is greater than 50 µM. `COc1cc2[nH]c(C)c(CCN3CCN(c4ccccc4)CC3)c2cc1OC` [Oxypertine hydrochloride]: it took 23.2 µM to reach half-maximal cytotoxicity (AC50 (uM) modified / 1000) (CC50 at 24 h).

The molecule `Cc1ccc(C)c(N)c1` [2,5-Dimethylaniline] came in with a CC50 at 24 h (AC50 (uM) modified / 1000) greater than 90 µM. For the setting “AC50 (uM) modified / 1000”, `CC(C)(C)c1cc(O)c(C(C)(C)C)cc1O` [2,5-Di-tert-butylbenzene-1,4-diol] showed a CC50 at 24 h of 37.2 µM. On to `OC[C@@H](O)[C@@H](O)[C@H](O)[C@@H](O)CO` [D-Glucitol], for which the CC50 at 24 h (AC50 (uM) modified / 1000) is greater than 90 µM. In turn, `OCCNCCO` [Diethanolamine] gave a CC50 at 24 h (AC50 (uM) modified / 1000) greater than 90 µM. The molecule `COCC(=O)O[C@]1(CCN(C)CCCc2nc3ccccc3[nH]2)CCc2cc(F)ccc2[C@@H]1C(C)C` [Mibefradil dihydrochloride] gave a CC50 at 24 h (AC50 (uM) modified / 1000) of 1.9 µM. For `C[N+](C)(C)CCO` [Cholin acetate], the CC50 at 24 h (AC50 (uM) modified / 1000) is greater than 50 µM. Consider `O=C(Cl)c1ccc(F)c(Cl)c1` [3-Chloro-4-fluorobenzoyl chloride], for which, where the note is “AC50 (uM) modified / 1000”, the CC50 at 24 h was greater than 90 µM.

With `CN1CCC(OC(c2ccccc2)c2ccccc2)CC1` [Diphenylpyraline hydrochloride], the CC50 at 24 h (AC50 (uM) modified / 1000) is greater than 20 µM. In turn, `Cc1ccc(-c2ccccc2)cc1` [4-Phenyltoluene] gave a CC50 at 24 h (AC50 (uM) modified / 1000) greater than 90 µM. Same read-out and setting: the result for `CN1C(=O)CN2CCc3ccccc3C2c2cc(Cl)ccc21` (centres unmarked) [Clazolam] reads greater than 50 µM; that for `COc1cnc(NS(=O)(=O)c2ccc(N)cc2)nc1` [Sulfameter], greater than 20 µM; that for `Cc1ncc([N+](=O)[O-])n1CC(O)CCl` (centres unmarked) [Ornidazole], greater than 20 µM. Consider `CC(C)CP(=S)(S)CC(C)C` [Sodium bis(2-methylpropyl)phosphinodithioate], for which the CC50 at 24 h (AC50 (uM) modified / 1000, Tox21_110001=Tox21_301761, viability, 1 nM T3 present, 24 h) was greater than 90 µM. Turning to `CN(C)C(=O)COC(=O)Cc1ccc(OC(=O)c2ccc(NC(=N)N)cc2)cc1` [Camostat mesylate], the CC50 at 24 h (AC50 (uM) modified / 1000) was greater than 50 µM. Consider `COc1ccc2c3c1O[C@H]1[C@@H](O)C=C[C@H]4[C@@H](C2)NCC[C@@]341` [N-Norcodeine hydrochloride], for which, under “AC50 (uM) modified / 1000, Tox21_110001=Tox21_112824, viability, 1 nM T3 present, 24 h”, the CC50 at 24 h is greater than 100 µM.

With `O=C(O)/C=C/c1ccccc1` [E-Cinnamic acid], where the note is “AC50 (uM) modified / 1000”, the CC50 at 24 h was greater than 90 µM. The molecule `N#Cc1ccc2c(c1)N(CCCN1CCC(O)CC1)c1ccccc1S2` [Periciazine] registered a CC50 at 24 h (AC50 (uM) modified / 1000) of 14.3 µM. For the setting “AC50 (uM) modified / 1000”, `CCCCC1=NC2(CCCC2)C(=O)N1Cc1ccc(-c2ccccc2-c2nnn[nH]2)cc1` [Irbesartan] came in with a CC50 at 24 h greater than 50 µM. Molecule `O=C1NC(=O)c2cccc3cccc1c23` [1H-Benzo[de]isoquinoline-1,3(2H)-dione] showed a CC50 at 24 h (AC50 (uM) modified / 1000) greater than 90 µM.

As to `CCCCCCCCCCCCCCCC` [Hexadecane], the CC50 at 24 h (AC50 (uM) modified / 1000) is greater than 90 µM. Same read-out and setting: the result for `SCCOCCOCCS` [2,2'-[Ethane-1,2-diylbis(oxy)]diethanethiol] reads greater than 90 µM; that for `C[N+](C)(C)CCOP(=O)(O)OP(=O)([O-])OC[C@H]1O[C@@H](n2ccc(N)nc2=O)[C@H](O)[C@@H]1O` [Citicoline sodium], greater than 50 µM. Molecule `Cc1ccc(N)cc1` [4-Methylaniline hydrochloride] registered a CC50 at 24 h (AC50 (uM) modified / 1000, Tox21_110001=Tox21_200517, viability, 1 nM T3 present, 24 h) greater than 90 µM.

Molecule `COC(=O)[C@]1(C)CCC[C@@]2(C)[C@H]1CC=C1C=C(C(C)C)CC[C@@H]12` [Methyl abietate] returned a CC50 at 24 h (AC50 (uM) modified / 1000) of 42.6 µM. Take `Cc1cc(O)c(C(=O)N[C@@H](C(=O)N[C@@H]2C(=O)N3C(C(=O)O)=C(CSc4nnnn4C)CS[C@H]23)c2ccc(O)cc2)cn1` [Cefpiramide acid]: for the setting “AC50 (uM) modified / 1000”, the CC50 at 24 h is greater than 50 µM. `O=C(O)CN1C(=O)c2cccc3cccc(c23)C1=O` [Alrestatin] showed a CC50 at 24 h (AC50 (uM) modified / 1000) greater than 50 µM. Consider `CC(C)CCCCCOC(=O)c1ccccc1C(=O)OCCCCCC(C)C` [Diisooctyl phthalate], for which the CC50 at 24 h (AC50 (uM) modified / 1000) was greater than 90 µM. Still for that read-out and setting: for `O=C1OC(c2ccc(O)c(S(=O)(=O)O)c2)(c2ccc(O)c(S(=O)(=O)O)c2)c2c(Br)c(Br)c(Br)c(Br)c21` [Sulfobromophthalein] the value was greater than 50 µM; for `CCCCCCCCCI` [1-Iodononane], greater than 90 µM. Regarding `O=C(O)CCCc1ccccc1` [Sodium 4-phenylbutyrate], the CC50 at 24 h (AC50 (uM) modified / 1000) is greater than 50 µM. Where the note is “AC50 (uM) modified / 1000”, `NS(=O)(=O)c1ccc(Cl)c(S(N)(=O)=O)c1` [Clofenamide] had a CC50 at 24 h greater than 50 µM. On the same count and under the same terms, the result for `Cc1cccc(C)c1N` [2,6-Dimethylaniline] reads greater than 90 µM; that for `Sc1nc(S)nc(S)n1` [Trisodium 2,4,6-trithioxo-1,3,5-triazinane-1,3,5-triide], greater than 50 µM. Turning to `CCCCN=C=O` [Butyl isocyanate], for the setting “AC50 (uM) modified / 1000”, the CC50 at 24 h is greater than 90 µM.

`O=C(c1ccc(O)cc1O)c1ccc(O)cc1O` [2,2',4,4'-Tetrahydroxybenzophenone] came in with a CC50 at 24 h (AC50 (uM) modified / 1000) greater than 90 µM. Regarding `CCN(CC)C(=O)/C(C#N)=C/c1cc(O)c(O)c([N+](=O)[O-])c1` [Entacapone], the CC50 at 24 h (AC50 (uM) modified / 1000) was greater than 50 µM.

`CC(Cl)Cl` [1,1-Dichloroethane] gave a CC50 at 24 h (AC50 (uM) modified / 1000, Tox21_110001=Tox21_200205, viability, 1 nM T3 present, 24 h) greater than 90 µM. With `O=[N+]([O-])c1ccc(Cl)cc1` [1-Chloro-4-nitrobenzene], the CC50 at 24 h (AC50 (uM) modified / 1000, Tox21_110001=Tox21_202291, viability, 1 nM T3 present, 24 h) was greater than 90 µM. Turning to `CC/C=C\CCOC(C)=O` [(3Z)-3-Hexenyl acetate], the CC50 at 24 h (AC50 (uM) modified / 1000) was greater than 90 µM. The same measure, in the same setting: for `Clc1ccc(C2(Cn3cncn3)OCCO2)c(Cl)c1` [Azaconazole] the value was greater than 90 µM; for `CC12CCC(CC1)C(C)(C)O2` [1,8-Cineol], greater than 90 µM; for `NC(=O)CI` [Iodoacetamide], greater than 90 µM. Where the note is “AC50 (uM) modified / 1000, Tox21_110001=Tox21_113080, viability, 1 nM T3 present, 24 h”, `COP(=S)(OC)Oc1ccc(S(N)(=O)=O)cc1` [Cythioate] registered a CC50 at 24 h greater than 50 µM. Turning to `Brc1ccc(Oc2ccccc2)cc1` [p-Bromodiphenyl ether], for the setting “AC50 (uM) modified / 1000”, the CC50 at 24 h was greater than 90 µM. As to `Cc1nc(N(C)C)nc(OC(=O)N(C)C)c1C` [Pirimicarb], the CC50 at 24 h (AC50 (uM) modified / 1000, Tox21_110001=Tox21_301003, viability, 1 nM T3 present, 24 h) was greater than 90 µM. Where the note is “AC50 (uM) modified / 1000”, `CCC(C)(C)C1CCC(O)CC1` (centres unmarked) [4-(2-Methylbutan-2-yl)cyclohexanol] displayed a CC50 at 24 h greater than 90 µM.

The molecule `CN/C(=N/CC1CCOC1)N[N+](=O)[O-]` (centres unmarked) [Dinotefuran] came in with a cytotoxic concentration (CC50) at 24 h (AC50 (uM) modified / 1000) greater than 90 µM. The molecule `N#CCCSCCC#N` [3,3'-Thiodipropionitrile] gave a CC50 at 24 h (AC50 (uM) modified / 1000) greater than 90 µM.

Turning to `CCCCC(CC)COC(=O)CS` (centres unmarked) [2-Ethylhexyl sulfanylacetate], the CC50 at 24 h (AC50 (uM) modified / 1000) was greater than 90 µM. As to `C=C(C)[C@@H]1CCC2=CC(=O)C[C@@H](C)[C@]2(C)C1` [Nootkatone], where the note is “AC50 (uM) modified / 1000”, the CC50 at 24 h was greater than 90 µM. Still for that read-out and setting: for `Cc1ncc([N+](=O)[O-])n1CCO` [Metronidazole] the value was greater than 50 µM; for `CC(=O)Oc1ccc(C)cc1` [4-Tolyl acetate], greater than 90 µM; for `CS(=O)(=O)NC(=O)CCC/C=C\C[C@H]1C(=O)C[C@@H](O)[C@@H]1/C=C/[C@@H](O)COc1ccccc1` [Sulprostone], greater than 50 µM. Same read-out and setting: for `Oc1ccc(CCNCCCCCCNCCc2ccccc2)cc1O` [Dopexamine] the value was 37.1 µM; for `Oc1ccc(Cc2ccccc2O)cc1` [2-(4-Hydroxybenzyl)phenol], greater than 90 µM; for `Cn1sc(Cl)cc1=O` [5-Chloro-2-methyl-3(2H)-isothiazolone], 65.6 µM. With `CC(C)CCCC(C)CC=O` (centres unmarked) [3,7-Dimethyloctanal], the CC50 at 24 h (AC50 (uM) modified / 1000) is greater than 90 µM. As to `CNCC(=O)c1ccc(O)c(O)c1` [Adrenone], the CC50 at 24 h (AC50 (uM) modified / 1000) is greater than 50 µM.

The molecule `Cc1c(F)c(F)c(COC(=O)[C@H]2[C@@H](/C=C(\Cl)C(F)(F)F)C2(C)C)c(F)c1F` (racemic) [Tefluthrin] came in with a CC50 at 24 h (AC50 (uM) modified / 1000) greater than 90 µM.

In the case of `C=CCCl` [Allyl chloride], the CC50 at 24 h (AC50 (uM) modified / 1000, Tox21_110001=Tox21_200824, viability, 1 nM T3 present, 24 h) is greater than 100 µM. On to `O=C(O)CCN(C1(C(=O)NO)CCCC1)S(=O)(=O)c1ccc(Oc2ccc(F)cc2)cc1` [CP-471358], for which the half-maximal cytotoxic concentration (CC50) at 24 h (AC50 (uM) modified / 1000) is greater than 90 µM. Still for that read-out and setting: for `C#CCOc1ccc2c(C)cc(=O)oc2c1` [Giparmen] the value was greater than 50 µM.

With `C=CCOC(=O)C(=C)C` [Allyl methacrylate], for the setting “AC50 (uM) modified / 1000”, the CC50 at 24 h was greater than 100 µM. For `OC[C@H]1O[C@@H](O[C@H]2[C@H](O)[C@@H](O)C(O)O[C@@H]2CO)[C@H](O)[C@@H](O)[C@@H]1O` (some centres unmarked) [Cellobiose], the CC50 at 24 h (AC50 (uM) modified / 1000) is greater than 50 µM. For `C=CC(=O)OCCOCCOC(=O)C=C` [Diethylene glycol diacrylate], for the setting “AC50 (uM) modified / 1000”, it took 21.6 µM to reach half-maximal cytotoxicity (CC50 at 24 h). `CC(C)(C)c1cc([N+](=O)[O-])cc([N+](=O)[O-])c1O` [Dinoterb] returned a CC50 at 24 h (AC50 (uM) modified / 1000, Tox21_110001=Tox21_300743, viability, 1 nM T3 present, 24 h) of 8.14 µM. `CCCCCCCCCO` [1-Nonanol]: the CC50 at 24 h (AC50 (uM) modified / 1000) was greater than 90 µM. On to `CCCCCC[N+](=O)[O-]` [1-Nitrohexane], for which the CC50 at 24 h (AC50 (uM) modified / 1000) was greater than 90 µM. `Cc1ccc(C(=O)c2ccccc2)cc1` [4-Methylbenzophenone] registered a CC50 at 24 h (AC50 (uM) modified / 1000) greater than 90 µM.
